Results from US9464076B2, “Benzothiophene derivative” (Daiichi Sankyo Company, Limited, priority 2013, dated 2016).
Counter-ions that a name gives are not always drawn.

Target: PDE10A (Homo sapiens (Human), UniProt Q9Y233)
Assay: Measurement of PDE10A inhibitory activity-2 (PDE10A fraction prepared from MOLT-4 cells)
Type: biochemical
Conditions: PDE10A fraction from MOLT-4 cells (peak around 250 mM NaCl)
Method: A human acute lymphoblastic lymphoma T cell line MOLT-4 (which can be purchased under ATCC No. CRL-1582 from ATCC) was cultured in an RPMI1640 medium containing 10% fetal bovine serum to obtain 5×10^8 MOLT-4 cells. The cells were recovered by centrifugation and suspended in 10 ml of buffer solution A (25 mM Tris-HCl, 5 mM 2-mercaptoethanol, 2 mM benzamidine, 2 mM EDTA, and 0.1 mM 4-(2-aminoethyl)benzenesulfonyl hydrochloride, pH 7.5). The cells were homogenized using a Polytron homogenizer and centrifuged (4° C., 25,000 g, 10 minutes). Then, the supernatant was further ultracentrifuged (4° C., 100,000 g, 60 minutes). The obtained supernatant was filtered through a 0.2 μm filter to obtain a soluble fraction.
HiTrap Q HP column (5 ml×2, GE Healthcare Japan Corp.) equilibrated with buffer solution A was charged with the obtained soluble fraction. Phosphodiesterase was eluted with 300 ml of buffer solution A containing a linear gradient solution of 0 to 0.8 M NaCl to recover sixty 5-ml fractions. Each fraction was tested for cAMP-metabolizing phosphodiesterase activity.
On the other hand, total RNA was prepared from Jurkat cells, one type of human T cell, and similarly subjected to RT-PCR. […] Eur J Biochem. 1999, 266 (3), 1118-2 has reported that PDE10A from the rat striatum and testis is eluted as an active peak centered around 250 mM NaCl.
For these reasons, this fraction was used as a solution for the evaluation of PDE10A inhibitory activity. The obtained solution was used to calculate the inhibitory activity (IC50) of a test compound in the same way as in the aforementioned test.

PDE10A, sequence (Q9Y233 whole entry): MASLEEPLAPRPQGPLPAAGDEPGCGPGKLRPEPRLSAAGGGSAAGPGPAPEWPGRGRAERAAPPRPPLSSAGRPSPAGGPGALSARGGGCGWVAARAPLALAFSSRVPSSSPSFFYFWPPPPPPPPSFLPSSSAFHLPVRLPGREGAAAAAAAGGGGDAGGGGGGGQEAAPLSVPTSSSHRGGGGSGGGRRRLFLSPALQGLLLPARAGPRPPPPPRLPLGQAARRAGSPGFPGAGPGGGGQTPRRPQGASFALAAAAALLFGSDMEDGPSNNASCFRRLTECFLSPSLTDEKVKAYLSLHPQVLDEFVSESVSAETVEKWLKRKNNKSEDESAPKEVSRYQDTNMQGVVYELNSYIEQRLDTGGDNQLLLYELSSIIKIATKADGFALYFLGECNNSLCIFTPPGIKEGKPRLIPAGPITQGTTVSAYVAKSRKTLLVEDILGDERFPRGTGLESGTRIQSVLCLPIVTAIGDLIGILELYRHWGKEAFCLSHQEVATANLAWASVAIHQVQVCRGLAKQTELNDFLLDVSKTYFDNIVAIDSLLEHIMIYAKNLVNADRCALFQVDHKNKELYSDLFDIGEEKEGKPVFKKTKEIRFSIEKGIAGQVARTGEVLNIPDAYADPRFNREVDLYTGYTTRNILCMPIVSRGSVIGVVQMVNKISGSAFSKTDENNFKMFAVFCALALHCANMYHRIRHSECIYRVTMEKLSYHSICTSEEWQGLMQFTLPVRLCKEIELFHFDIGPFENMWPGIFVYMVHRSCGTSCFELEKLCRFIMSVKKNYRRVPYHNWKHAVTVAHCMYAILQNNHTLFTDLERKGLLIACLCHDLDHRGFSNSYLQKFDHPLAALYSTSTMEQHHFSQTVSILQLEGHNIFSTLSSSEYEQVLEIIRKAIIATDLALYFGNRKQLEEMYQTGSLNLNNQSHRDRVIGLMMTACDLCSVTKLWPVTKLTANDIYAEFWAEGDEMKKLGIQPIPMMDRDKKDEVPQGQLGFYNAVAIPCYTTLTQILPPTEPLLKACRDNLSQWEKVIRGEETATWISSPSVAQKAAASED

In order of rising IC50:
1. COCc1ccc(C(=O)C(C)(C)C)c2sc(C(=O)Nc3cc(CN4CC[C@@H](O)C4)c4ccccc4n3)c(C)c12 [Example 58, (R)—N-(4-((3-Hydroxypyrrolidin-1-yl)methyl)quinolin-2-yl)-4-(methoxymethyl)-3-methyl-7-pivaloylbenzo[b]thiophene-2-carboxamide dihydrochloride]  0.085 nM
2. COCc1ccc(C(C)=O)c2sc(C(=O)Nc3ccc4c(C(=O)O)cccc4n3)c(C)c12 [Example 93, 2-(7-Acetyl-4-(methoxymethyl)-3-methylbenzo[b]thiophene-2-carboxamido)quinoline-5-carboxylic acid]  0.11 nM
3. COCc1cccc2nc(NC(=O)c3sc4c(C(C)=O)ccc(CO)c4c3C)ccc12 [Example 113, 7-Acetyl-4-(hydroxymethyl)-N-(5-(methoxymethyl)quinolin-2-yl)-3-methylbenzo[b]thiophene-2-carboxamide]  0.12 nM
4. [2H]C([2H])([2H])OC1CN(C(=O)c2cccc3nc(NC(=O)c4sc5c(C(C)=O)ccc(C([2H])([2H])OC)c5c4C)ccc23)C1 [Example 123, 7-Acetyl-N-(5-((3-(^2H3)methoxyazetidin-1-yl)carbonyl)quinolin-2-yl)-4-(methoxy(^2H2)methyl)-3-methylbenzo[b]thiophene-2-carboxamide]  0.22 nM
5. COCc1ccc(C(C)=O)c2sc(C(=O)Nc3cc(CN4CCC(O)C4)c4ccccc4n3)c(C)c12 (centres unmarked) [Example 35, 7-Acetyl-N-(4-((3-hydroxypyrrolidin-1-yl)methyl)quinolin-2-yl)-4-(methoxymethyl)-3-methylbenzo[b]thiophene-2-carboxamide]  0.29 nM
6. COCc1ccc(C(C)=O)c2sc(C(=O)Nc3cc(CN4CCC(F)CC4)c4ccccc4n3)c(C)c12 [Example 46, 7-Acetyl-N-(4-((4-fluoropiperidin-1-yl)methyl)quinolin-2-yl)-4-(methoxymethyl)-3-methylbenzo[b]thiophene-2-carboxamide]  0.44 nM
7. Cc1c(C(=O)Nc2cc(C(C)(C)O)c3ccccc3n2)sc2c(C(=O)C(C)C)cccc12 [Example 18, N-(4-(2-Hydroxypropan-2-yl)quinolin-2-yl)-7-isobutyryl-3-methylbenzo[b]thiophene-2-carboxamide]  0.47 nM
8. COCc1ccc(C(C)=O)c2sc(C(=O)Nc3cc(CN4CCCC(O)C4)c4ccccc4n3)c(C)c12 (centres unmarked) [Example 37, 7-Acetyl-N-(4-((3-hydroxypiperidin-1-yl)methyl)quinolin-2-yl)-4-(methoxymethyl)-3-methylbenzo[b]thiophene-2-carboxamide]  0.5 nM
9. COCc1ccc(C(C)=O)c2sc(C(=O)Nc3ccc4c(COC(=O)[C@@H](N)CO)cccc4n3)c(C)c12 [Example 91, (S)-(2-(7-Acetyl-4-(methoxymethyl)-3-methylbenzo[b]thiophene-2-carboxamido)quinolin-5-yl)methyl-2-amino-3-hydroxypropanoate]  0.74 nM
10. COCc1ccc(C(C)=O)c2sc(C(=O)Nc3ccc4c(COC(C)=O)cccc4n3)c(C)c12 [Example 83, (2-(7-Acetyl-4-(methoxymethyl)-3-methylbenzo[b]thiophene-2-carboxamido)quinolin-5-yl)methylacetate]  0.86 nM
11. CC(=O)c1ccc(C(C)=O)c2c(C)c(C(=O)Nc3cc(CO)c4ccccc4n3)sc12 [Example 14, 4,7-Diacetyl-N-(4-(hydroxymethyl)quinolin-2-yl)-3-methylbenzo[b]thiophene-2-carboxamide]  0.89 nM
12. COC1CN(C(=O)c2cccc3nc(NC(=O)c4sc5c(C(C)=O)ccc(CO)c5c4C)ccc23)C1 [Example 115, 7-Acetyl-4-(hydroxymethyl)-N-(5-((3-methoxyazetidin-1-yl)carbonyl)quinolin-2-yl)-3-methylbenzo[b]thiophene-2-carboxamide]  0.89 nM
13. COCc1ccc(C(C)=O)c2sc(C(=O)Nc3ccc4c(C(C)=O)cccc4n3)c(C)c12 [Example 75, 7-Acetyl-N-(5-acetylquinolin-2-yl)-4-(methoxymethyl)-3-methylbenzo[b]thiophene-2-carboxamide]  0.91 nM
14. Cc1c(C(=O)Nc2cc(C(C)(C)O)c3ccccc3n2)sc2c(C(=O)C3CC3)cccc12 [Example 19, 7-(Cyclopropylcarbonyl)-N-(4-(2-hydroxypropan-2-yl)quinolin-2-yl)-3-methylbenzo[b]thiophene-2-carboxamide]  0.92 nM
15. COCc1ccc(C(C)=O)c2sc(C(=O)Nc3cc(CN(C)CCO)c4ccccc4n3)c(C)c12 [Example 34, 7-Acetyl-N-(4-(((2-hydroxyethyl)(methyl)amino)methyl)quinolin-2-yl)-4-(methoxymethyl)-3-methylbenzo[b]thiophene-2-carboxamide dihydrochloride]  0.94 nM
16. COCc1ccc(C(C)=O)c2sc(C(=O)Nc3cc(N4CCOCC4)c4ccccc4n3)c(C)c12 [Example 56, 7-Acetyl-4-(methoxymethyl)-3-methyl-N-(4-morpholinoquinolin-2-yl)benzo[b]thiophene-2-carboxamide]  1.1 nM
17. CC(=O)c1ccc(C(C)=O)c2c(C)c(C(=O)Nc3cc(CN4CC(O)C4)c4ccccc4n3)sc12 [Example 52, 4,7-Diacetyl-N-(4-((3-hydroxyazetidin-1-yl)methyl)quinolin-2-yl)-3-methylbenzo[b]thiophene-2-carboxamide]  1.2 nM
18. COCc1ccc(C(C)=O)c2sc(C(=O)Nc3ccc4c(C(=O)NN5CCCC5)cccc4n3)c(C)c12 [Example 94, 2-(7-Acetyl-4-(methoxymethyl)-3-methylbenzo[b]thiophene-2-carboxamido)-N-(pyrrolidin-1-yl)quinoline-5-carboxamide]  1.2 nM
19. CC(=O)c1ccc(C(C)=O)c2c(C)c(C(=O)Nc3ccc4ccccc4n3)sc12 [Example 1, 4,7-Diacetyl-3-methyl-N-(quinolin-2-yl)benzo[b]thiophene-2-carboxamide]  1.6 nM
20. CC(=O)c1ccc(C(C)=O)c2c(C)c(C(=O)Nc3cc(C)c4ccccc4n3)sc12 [Example 11, 4,7-Diacetyl-3-methyl-N-(4-methylquinolin-2-yl)benzo[b]thiophene-2-carboxamide]  2.2 nM
21. CC(=O)c1ccc(C(C)=O)c2c(C)c(C(=O)Nc3cc(C(C)(C)O)c4ccccc4n3)sc12 [Example 2, 4,7-Diacetyl-N-(4-(2-hydroxypropan-2-yl)quinolin-2-yl)-3-methylbenzo[b]thiophene-2-carboxamide]  2.6 nM
22. CCOCc1ccc(C(C)=O)c2sc(C(=O)Nc3cc(C(C)(C)O)c4ccccc4n3)c(C)c12 [Example 29, 7-Acetyl-4-(ethoxymethyl)-N-(4-(2-hydroxypropan-2-yl)quinolin-2-yl)-3-methylbenzo[b]thiophene-2-carboxamide]  3 nM
23. Cc1c(C(=O)Nc2cc(C(C)(C)O)c3ccccc3n2)sc2c(C(=O)C3CCCC3)cccc12 [Example 25, 7-(Cyclopentylcarbonyl)-N-(4-(2-hydroxypropan-2-yl)quinolin-2-yl)-3-methylbenzo[b]thiophene-2-carboxamide]  4 nM
24. COc1cc(NC(=O)c2sc3c(C(C)=O)ccc(C(C)=O)c3c2C)nc2ccccc12 [Example 12, 4,7-Diacetyl-N-(4-methoxyquinolin-2-yl)-3-methylbenzo[b]thiophene-2-carboxamide]  4.4 nM
25. CC(=O)c1ccc(C(C)O)c2c(C)c(C(=O)Nc3cc(C(C)(C)O)c4ccccc4n3)sc12 (centres unmarked) [Example 9, 7-Acetyl-4-(1-hydroxyethyl)-N-(4-(2-hydroxypropan-2-yl)quinolin-2-yl)-3-methylbenzo[b]thiophene-2-carboxamide]  7.8 nM
26. CCCCC(=O)c1cccc2c(C)c(C(=O)Nc3cc(C(C)(C)O)c4ccccc4n3)sc12 [Example 20, N-(4-(2-Hydroxypropan-2-yl)quinolin-2-yl)-3-methyl-7-pentanoylbenzo[b]thiophene-2-carboxamide]  10 nM
27. CC(=O)c1ccc(C(C)=O)c2sc(C(=O)Nc3cc(C(C)(C)O)c4ccccc4n3)cc12 [Example 8, 4,7-Diacetyl-N-(4-(2-hydroxypropan-2-yl)quinolin-2-yl)benzo[b]thiophene-2-carboxamide]  12 nM
28. CC(=O)c1ccc(COC(C)C)c2c(C)c(C(=O)Nc3cc(C(C)(C)O)c4ccccc4n3)sc12 [Example 31, 7-Acetyl-N-(4-(2-hydroxypropan-2-yl)quinolin-2-yl)-4-(isopropoxymethyl)-3-methylbenzo[b]thiophene-2-carboxamide]  16 nM
29. COCc1ccc(C(C)=O)c2sc(C(=O)Nc3cc(Cl)c4ccccc4n3)c(C)c12 [Example 53, 7-Acetyl-N-(4-chloroquinolin-2-yl)-4-(methoxymethyl)-3-methylbenzo[b]thiophene-2-carboxamide]  18 nM
